In general, EC50 refers to the concentration giving half of the maximal effect. A low value points to higher potency in that assay.

Here are results for 28 compounds from patent US20220089578A1, “COMPOUNDS AS GLP-1R AGONISTS” (Terns Pharmaceuticals, Inc., priority 2020, published 2022).

Bounds are passed on as bounds.

Chain of human GLP-1R (P43220 24-463): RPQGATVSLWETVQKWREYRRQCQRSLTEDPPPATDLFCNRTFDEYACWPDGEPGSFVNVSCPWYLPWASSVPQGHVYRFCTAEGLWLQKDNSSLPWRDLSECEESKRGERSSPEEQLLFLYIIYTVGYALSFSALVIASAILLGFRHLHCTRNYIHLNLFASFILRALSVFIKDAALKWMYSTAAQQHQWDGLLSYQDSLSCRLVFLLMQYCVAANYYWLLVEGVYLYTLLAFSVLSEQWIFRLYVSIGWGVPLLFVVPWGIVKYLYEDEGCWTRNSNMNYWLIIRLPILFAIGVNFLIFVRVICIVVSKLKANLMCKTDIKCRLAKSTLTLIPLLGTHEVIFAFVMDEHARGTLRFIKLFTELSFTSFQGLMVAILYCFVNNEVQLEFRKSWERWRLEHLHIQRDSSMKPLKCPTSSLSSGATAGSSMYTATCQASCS

The first assay concerns the target human GLP-1R (Homo sapiens, UniProt P43220). Description: GLP-1R Cell Assay 1: cAMP Hunter CHO-K1 GLP1R Gs cell line, HitHunter cAMP assay. It is filed as cell-based. Particulars: Table 2; cAMP Hunter CHO-K1 GLP1R Gs cells; percent activity normalized to Exendin-4. Put shortly:
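Luminescent enzyme-fragment-complementation immunoassay quantified cellular cAMP after 30-60 min compound exposure at 37 °C in HBSS/10 mM HEPES. Data from duplicate runs were normalised to Exendin-4 and fitted nonlinearly for EC50.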
On the technique in general: cAMP levels reflect the balance of adenylyl cyclase and phosphodiesterase activity.
With `N#Cc1ccc(COc2nn(C3CCN(Cc4nc5ccc(C(=O)O)cc5n4C[C@@H]4CCO4)CC3)cc2C#N)c(F)c1` [Compound 111, (S)-2-((4-(4-cyano-3-((4-cyano-2-fluorobenzyl)oxy)-1H-pyrazol-1-yl)piperidin-1-yl)methyl)-1-(oxetan-2-ylmethyl)-1H-benzo[d]imidazole-6-carboxylic acid], the EC50 came out at 36.8 nM. `O=C(O)c1ccc2nc(CN3CCC(n4nc(OCc5ccccc5)c5c4CCCC5)CC3)n(C[C@@H]3CCO3)c2c1` [Compound 23, (S)-2-((4-(3-(benzyloxy)-4,5,6,7-tetrahydro-1H-indazol-1-yl)piperidin-1-yl)methyl)-1-(oxetan-2-ylmethyl)-1H-benzo[d]imidazole-6-carboxylic acid] displayed a half-maximal effective concentration (EC50) above 500 nM. Still for that read-out and setting: for `Cn1cnc2cc(COc3cccc(N4CCN(Cc5nc6ccc(C(=O)O)cc6n5C[C@@H]5CCO5)CC4)n3)ccc21` [Compound 3, (S)-2-((4-(6-((1-methyl-1H-benzo[d]imidazol-5-yl)methoxy)pyridin-2-yl)piperazin-1-yl)methyl)-1-(oxetan-2-ylmethyl)-1H-benzo[d]imidazole-6-carboxylic acid] the value was 9.05 nM. As for `CC1(COc2cccc(N3CCN(Cc4nc5ccc(C(=O)O)cc5n4C[C@@H]4CCO4)CC3)n2)CC(F)(F)C1` [Compound 34, (S)-2-((4-(6-((3,3-difluoro-1-methylcyclobutyl)methoxy)pyridin-2-yl)piperazin-1-yl)methyl)-1-(oxetan-2-ylmethyl)-1H-benzo[d]imidazole-6-carboxylic acid], it took 333 nM to reach a half-maximal effect (EC50). With `O=C(O)c1ccc2nc(CN3CCC(c4cccc(OCc5nccs5)n4)CC3)n(C[C@@H]3CCO3)c2c1` [Compound 139, (S)-1-(oxetan-2-ylmethyl)-2-((4-(6-(thiazol-2-ylmethoxy)pyridin-2-yl)piperidin-1-yl)methyl)-1H-benzo[d]imidazole-6-carboxylic acid], the concentration giving a half-maximal response (EC50) turned out to be 2.65 nM. `O=C(O)c1ccc2nc(CN3CCN(c4cccc(OCc5nc6cc(Cl)ccc6s5)n4)CC3)n(C[C@@H]3CCO3)c2c1` [Compound 112, (S)-2-((4-(6-((5-chlorobenzo[d]thiazol-2-yl)methoxy)pyridin-2-yl)piperazin-1-yl)methyl)-1-(oxetan-2-ylmethyl)-1H-benzo[d]imidazole-6-carboxylic acid] registered an EC50 of 1.24 nM. `N#Cc1ccc2c(c1)CN(c1cccc(N3CCN(Cc4nc5ccc(C(=O)O)cc5n4C[C@@H]4CCO4)CC3)n1)C2` [Compound 57, (S)-2-((4-(6-(5-cyanoisoindolin-2-yl)pyridin-2-yl)piperazin-1-yl)methyl)-1-(oxetan-2-ylmethyl)-1H-benzo[d]imidazole-6-carboxylic acid] registered a 50% effective concentration (EC50) above 500 nM. Still for that read-out and setting: for `O=C(O)c1ccc2nc(CN3CCN(c4cccc(OCc5ccc6ncoc6c5)n4)CC3)n(C[C@@H]3CCO3)c2c1` [Compound 75, (S)-2-((4-(6-(benzo[d]oxazol-6-ylmethoxy)pyridin-2-yl)piperazin-1-yl)methyl)-1-(oxetan-2-ylmethyl)-1H-benzo[d]imidazole-6-carboxylic acid] the value was 2.17 nM; for `C[C@H]1COC[C@@H](N2CCC(c3cccc(OCc4ccc(C#N)cc4F)n3)CC2)c2nc3ccc(C(=O)O)cc3n21` (single isomer, unassigned) [Compound 8-P2], 82.1 nM. On the same count and under the same terms, for `O=C(O)c1ccc2nc(CN3CCC(n4ccc(OCc5nc6ccccc6s5)n4)CC3)n(C[C@@H]3CCO3)c2c1` [Compound 101, (S)-2-((4-(3-(benzo[d]thiazol-2-ylmethoxy)-1H-pyrazol-1-yl)piperidin-1-yl)methyl)-1-(oxetan-2-ylmethyl)-1H-benzo[d]imidazole-6-carboxylic acid] the value was 28.7 nM; for `O=C(O)c1ccc2nc(CN3CCN(c4cccc(OCc5cc6ccccc6s5)n4)CC3)n(C[C@@H]3CCO3)c2c1` [Compound 65, (S)-2-((4-(6-(benzo[b]thiophen-2-ylmethoxy)pyridin-2-yl)piperazin-1-yl)methyl)-1-(oxetan-2-ylmethyl)-1H-benzo[d]imidazole-6-carboxylic acid], 0.998 nM; for `O=C(O)c1ccc2nc(CN3CCN(c4cccc(OC5CN(c6ccccc6)C5)n4)CC3)n(C[C@@H]3CCO3)c2c1` [Compound 39, (S)-1-(oxetan-2-ylmethyl)-2-((4-(6-((1-phenylazetidin-3-yl)oxy)pyridin-2-yl)piperazin-1-yl)methyl)-1H-benzo[d]imidazole-6-carboxylic acid], 420 nM. The same measure, in the same setting: the figure for `O=C(O)c1ccc2nc(CN3CCN(c4cccc(OCCC5CCCCC5)n4)CC3)n(C[C@@H]3CCO3)c2c1` [Compound 44, (S)-2-((4-(6-(2-cyclohexylethoxy)pyridin-2-yl)piperazin-1-yl)methyl)-1-(oxetan-2-ylmethyl)-1H-benzo[d]imidazole-6-carboxylic acid] is 82.1 nM; for `N#Cc1ccc(Cn2ncc3ccc(N4CCN(Cc5nc6ccc(C(=O)O)cc6n5C[C@@H]5CCO5)CC4)nc32)c(F)c1` [Compound 30, (S)-2-((4-(1-(4-cyano-2-fluorobenzyl)-1H-pyrazolo[3,4-b]pyridin-6-yl)piperazin-1-yl)methyl)-1-(oxetan-2-ylmethyl)-1H-benzo[d]imidazole-6-carboxylic acid] it is 16.3 nM. For `C[C@H]1c2ccc(C#N)cc2CCN1c1cccc(N2CCN(Cc3nc4ccc(C(=O)O)cc4n3C[C@@H]3CCO3)CC2)n1` [Compound 84], it took 102 nM to reach a half-maximal effect (EC50). On the same count and under the same terms, the figure for `O=C(O)c1ccc2nc(CN3CCN(c4cccc(OCC5CCC6(CC5)COC6)n4)CC3)n(C[C@@H]3CCO3)c2c1` [Compound 46, (S)-2-((4-(6-((2-oxaspiro[3.5]nonan-7-yl)methoxy)pyridin-2-yl)piperazin-1-yl)methyl)-1-(oxetan-2-ylmethyl)-1H-benzo[d]imidazole-6-carboxylic acid] is above 500 nM; for `O=C(O)c1ccc2nc(CN3CCN(c4cccc(N5CCc6cc(Cl)cc(F)c6C5)n4)CC3)n(C[C@@H]3CCO3)c2c1` [Compound 127, (S)-2-((4-(6-(6-chloro-8-fluoro-3,4-dihydroisoquinolin-2(1H)-yl)pyridin-2-yl)piperazin-1-yl)methyl)-1-(oxetan-2-ylmethyl)-1H-benzo[d]imidazole-6-carboxylic acid] it is 1.09 nM. As to `N#Cc1cc(F)c2c(c1)CCN(c1cccc(C3CCN(Cc4nc5ccc(C(=O)O)cc5n4C[C@@H]4CCO4)CC3)n1)C2` [Compound 13, (S)-2-((4-(6-(6-cyano-8-fluoro-3,4-dihydroisoquinolin-2(1H)-yl)pyridin-2-yl)piperidin-1-yl)methyl)-1-(oxetan-2-ylmethyl)-1H-benzo[d]imidazole-6-carboxylic acid], the concentration giving a half-maximal response (EC50) is 0.788 nM. Still for that read-out and setting: the figure for `N#Cc1ccc(COc2cccc(C3CCN([C@H]4CCn5c4nc4ccc(C(=O)O)cc45)CC3)n2)c(F)c1` (single isomer, unassigned) [Compound 6-P2] is above 500 nM; for `O=C(O)c1ccc2nc(CN3CC[C@@]4(c5cccc(OCc6nc7ccccc7s6)n5)C[C@H]4C3)n(C[C@@H]3CCO3)c2c1` (single isomer, unassigned) [Compound 104-P1] it is 4.91 nM. Turning to `O=C(O)c1ccc2nc(CN3CCN(c4cccc(OCc5nc6c(s5)CCCC6)n4)CC3)n(C[C@@H]3CCO3)c2c1` [Compound 131, (S)-1-(oxetan-2-ylmethyl)-2-((4-(6-((4,5,6,7-tetrahydrobenzo[d]thiazol-2-yl)methoxy)pyridin-2-yl)piperazin-1-yl)methyl)-1H-benzo[d]imidazole-6-carboxylic acid], the 50% effective concentration (EC50) is 1.71 nM.

In turn, `N#Cc1ccc(COc2cccc(N3CCN(Cc4nc5ccc(C(=O)O)cc5n4C[C@@H]4CCS4(=O)=O)CC3)n2)c(F)c1` (single isomer, unassigned) [Compound 140-P1] had a concentration for a half-maximal effect (EC50) of 0.571 nM.

Still in this assay, the particulars now being: Table 3; cAMP Hunter CHO-K1 GLP1R Gs cells; percent activity normalized to Exendin-4.
Turning to `O=C(O)c1ccc2nc(CN3CCN(c4ccc5c(n4)N(Cc4ccccc4)C(=O)CO5)CC3)n(C[C@@H]3CCO3)c2c1` [Compound 154, (S)-2-((4-(4-benzyl-3-oxo-3,4-dihydro-2H-pyrido[3,2-b][1,4]oxazin-6-yl)piperazin-1-yl)methyl)-1-(oxetan-2-ylmethyl)-1H-benzo[d]imidazole-6-carboxylic acid], the EC50 was above 500 nM.

The compound `N#Cc1ccc(CN2CCCc3ccc(N4CCN(Cc5nc6ccc(C(=O)O)cc6n5C[C@@H]5CCO5)CC4)nc32)c(F)c1` [Compound 148, (S)-2-((4-(8-(4-cyano-2-fluorobenzyl)-5,67,8-tetrahydro-1,8-naphthyridin-2-yl)piperazin-1-yl)methyl)-1-(oxetan-2-ylmethyl)-1H-benzo[d]imidazole-6-carboxylic acid] returned an EC50 above 500 nM. Take `N#Cc1ccc([C@H]2CCc3c(cccc3N3CCN(Cc4nc5ccc(C(=O)O)cc5n4C[C@@H]4CCO4)CC3)O2)c(F)c1` (single isomer, unassigned) [Compound 151-P1]: the EC50 worked out at 261 nM. On the same count and under the same terms, the figure for `N#Cc1ccc(N2CCc3ccc(N4CCN(Cc5nc6ccc(C(=O)O)cc6n5C[C@@H]5CCO5)CC4)nc3C2)c(F)c1` [Compound 144, (S)-2-((4-(7-(4-cyano-2-fluorophenyl)-5,6,7,8-tetrahydro-1,7-naphthyridin-2-yl)piperazin-1-yl)methyl)-1-(oxetan-2-ylmethyl)-1H-benzo[d]imidazole-6-carboxylic acid] is above 500 nM. On the same count and under the same terms, for `O=C(O)c1ccc2nc(CN3CCN(c4ccc5c(n4)OC(c4ccccc4)CC5)CC3)n(C[C@@H]3CCO3)c2c1` (stereo partly drawn) [Compound 162, 1-(((S)-oxetan-2-yl)methyl)-2-((4-(2-phenyl-3,4-dihydro-2H-pyrano[2,3-b]pyridin-7-yl)piperazin-1-yl)methyl)-1H-benzo[d]imidazole-6-carboxylic acid] the value was above 500 nM; for `N#Cc1cc(F)c2c(c1)CCN(c1cccc(C34CCN(Cc5nc6ccc(C(=O)O)cc6n5CC5CCO5)CC3C4)n1)C2` (stereo not shown) [Compound 168, 2-((6-(6-(6-cyano-8-fluoro-3,4-dihydroisoquinolin-2(1H)-yl)pyridin-2-yl)-3-azabicyclo[4.1.0]heptan-3-yl)methyl)-1-(oxetan-2-ylmethyl)-1H-benzo[d]imidazole-6-carboxylic acid], 17.4 nM.
